In patent publication US20230148450A9, “BICYCLIC HETEROARYL COMPOUNDS AND USES THEREOF” (Revolution Medicines, Inc., priority 2019, published 2023):

Tests used:
[1] = target: T1, SOS1 catalytic domain (residues 564-1049) (Homo sapiens, UniProt Q07889); assay: Binding affinity to SOS1 using Surface Plasmon Resonance (SPR); details: avi-tagged SOS1 catalytic domain immobilized on sensor chip; read-out: SOS1 SPR Equilibrium Kd
T1 construct: SOS1 catalytic domain (residues 564-1049) immobilized on a sensor chip
T1 sequence (Q07889 564-1049): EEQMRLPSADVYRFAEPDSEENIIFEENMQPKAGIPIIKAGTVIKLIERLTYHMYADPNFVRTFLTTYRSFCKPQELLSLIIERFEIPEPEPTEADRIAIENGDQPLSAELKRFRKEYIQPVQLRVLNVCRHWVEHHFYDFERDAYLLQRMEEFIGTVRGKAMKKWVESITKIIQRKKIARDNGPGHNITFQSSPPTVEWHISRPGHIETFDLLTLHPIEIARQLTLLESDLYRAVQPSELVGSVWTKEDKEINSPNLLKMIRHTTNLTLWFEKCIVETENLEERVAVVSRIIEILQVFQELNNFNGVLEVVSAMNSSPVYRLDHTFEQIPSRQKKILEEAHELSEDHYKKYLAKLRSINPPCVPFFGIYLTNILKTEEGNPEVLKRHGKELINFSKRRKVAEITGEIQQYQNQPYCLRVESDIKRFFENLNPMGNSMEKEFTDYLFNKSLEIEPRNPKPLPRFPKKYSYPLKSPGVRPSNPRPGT
Excerpt: Potency Assay: Measurement of the Binding Affinity of Compounds of the Invention to SOS! using Surface Plasmon Resonance (SPR)
The purpose of the SPR assay was to measure the direct binding of compounds to SOS1 catalytic domain (residues 564-1049) immobilized on a sensor chip. Data was reported as equilibrium dissociation constant (Kd) values.
Using a GE Biacore 8K SPR instrument, avi-tagged SOS1 catalytic domain protein was immobilized to a level of approximately 6000 response units (RU) on a streptavidin-coated SPR sensor chip in assay buffer containing 0.01 M HEPES, 0.15 M NaCl and 0.05% v/v Surfactant P20. In assay buffer containing 2% DMSO, concentration series of test compounds were generated spanning 5 μM to 4.9 nM over ten 2-fold dilutions. For each test compound, a separate 0 μM sample was generated for use during subsequent double reference subtraction. Serially for each test compound, individual dilution samples were flowed over the immobilized SOS1 protein at a flow rate of 50 μL/minute to monitor the association with SOS1. Dissociation of bound test compound from the SOS1 protein was immediately monitored by flowing assay buffer over the sensor surface and monitoring the decrease in binding signal back to the baseline level seen in the absence of compound. This was repeated for all compound dilutions in each series. The binding level response for each test compound concentration was noted immediately prior to the end of the association phase, and a secondary plot generated showing binding response level versus test compound concentration generated for each compound dilution series.

[2] = target: T2, SOS1 nucleotide exchange of KRAS (catalytic domain of SOS1, residues 564-1049; wild-type KRAS) (Homo sapiens, UniProt Q07889); assay: Mode of Action Assay: Inhibition of SOS1 Nucleotide Exchange Activity (TR-FRET); format: biochemical; details: TR-FRET signal
T2 construct: tagless catalytic domain of SOS1 (residues 564-1049)
T2 sequence (Q07889 564-1049): T1 sequence (Q07889 564-1049)
Protocol: The purpose of this assay was to characterize the inhibitory activity of compounds on SOS1 nucleotide exchange of KRAS. Data was reported as IC50 values based on the TR-FRET signal.
Note—the following protocol describes a procedure for monitoring the inhibition of SOS1 nucleotide exchange activity of wild-type KRAS in response to a compound of the invention. Other KRAS mutants and RAS isoforms maybe employed.
In assay buffer containing 20 mM HEPES, pH 7.5, 150 mM NaCl, 5 mM MgCl2, 0.05% Tween-20, 0.1% BSA, 1 mM DTT, concentration series of test compounds were generated spanning 100 μM to 1.7 nM over eleven 3-fold serial dilutions in a 384-well assay plate at a volume of 20 μL. The purified tagless catalytic domain of SOS1 (residues 564-1049) was first diluted in assay buffer at a concentration of 100 nM, and then 20 μL of the SOS1 containing solution was directly dispensed into compound plates. The SOS1/compound mixture was incubated at room temperature with constant mixing on an orbital shaker for 20 minutes to allow the reaction to reach equilibrium. A KRAS mixture was prepared by diluting 66.7 nM avi-tagged KRAS (residue 1-169), 3.33 nM Streptavidin-Tb and 333 nM EDA-GTP-DY-647P1 in assay buffer. This mixture was prepared immediately before addition to the SOS1/compound mixture to prevent intrinsic nucleotide exchange. Then 5 μL of the pre-incubated SOS1/compound mixture and 7.5 μL of the KRAS mixture were added sequentially in a 384-well low volume black round bottom plate and incubated at room temperature with constant shaking for 30 minutes. Time-resolved fluorescence was measured on a PerkinElmer Envision plate reader. DMSO and 10 μM of compound (i) were used as negative and positive controls, respectively.
Three replicates were performed for each compound. Data were normalized by the following: (Positive control—Sample signal)/(Positive control—negative control)*100. The data were fit using a four-parameter logistic fit.

[3] = tested on: cellular pERK in PC-9 cells (EGFR Ex19Del); assay: Potency Assay: pERK; format: cell-based; details: Homo sapiens; PC-9 cells (EGFR Ex19Del), 1 hour incubation, AlphaLISA p-ERK1/2; read-out: SOS1 pERK IC50
Excerpt: The purpose of this assay is to measure the ability of test compounds to inhibit SOS1 function in cells. SOS1 activates RAS proteins by catalyzing the conversion of […] to […] in response to receptor tyrosine kinase activation. Activation of RAS induces a sequence of cellular signaling events that results in increased phosphorylation of ERK at […] (pERK). The procedure described below measures the level of cellular pERK in response to test compounds in PC-9 cells (EGFR Ex[…]). PC-9 cells were grown and maintained using media and procedures recommended by the ATCC. On the day prior to compound addition, cells were plated in 384-well cell culture plates (40 μL/well) and grown overnight in a 37° C., 5% CO2 incubator. Test compounds were prepared in 10, 3-fold dilutions in DMSO, with a top concentration of 10 mM. On the day of the assay, 40 nL of test compound was added to each well of cell culture plate using an Echo550 liquid handler (LabCyte). Concentrations of test compound were tested in duplicate with highest test concentration being 10 μM. After compound addition, cells were incubated for 1 hour at 37° C., 5% CO2. Following incubation, culture medium was removed and cells were washed once with phosphate buffered saline. Cellular pERK level was determined using the AlphaLISA SureFire Ultra p-ERK1/2 Assay Kit (PerkinElmer). Cells were lysed in 25 μL lysis buffer, with shaking at 600 RPM at room temperature for 15 minutes. Lysate (10 μL) was transferred to a 384-well Opti-plate (PerkinElmer) and 5 μL acceptor mix was added. The plate was centrifuged at 1000 RPM for 1 minute, and incubated in the dark for 2 hours. Following this incubation, 5 μL of donor mix was added, the plate was sealed and centrifuged at 1000 RPM for 1 minute, and the mixture was incubated for 2 hours at room temperature. Signal was read on an Envision plate reader (PerkinElmer) using standard AlphaLISA settings. Analysis of raw data was carried out in Excel (Microsoft) and Prism (GraphPad). Signal was plotted vs. the decadal logarithm of compound concentration, and IC50 was determined by fitting a 4-parameter sigmoidal concentration response model.

Structure (SMILES) | Kd [1] | IC50 [2] | IC50 [3]
C[C@@H](Nc1ncnc2cn(CC3CCOC3)cc12)c1cc(N)cc(C(F)(F)F)c1 (stereo partly drawn) [Example 32, N-[(1R)-1-[3-amino-5-(trifluoromethyl)phenyl]ethyl]-6-(tetrahydrofuran-3-ylmethyl)pyrrolo[3,4-d]pyrimidin-4-amine] | ≤ 0.4 µM | – | –
Cc1nc(N[C@H](C)c2cc(N)cc(C(F)(F)F)c2)c2cc(CN3CCOCC3)cn2n1 [Example 34, N-[(1R)-1-[3-amino-5-(trifluoromethyl)phenyl]ethyl]-2-methyl-6-(morpholinomethyl)pyrrolo[2,1-f][1,2,4]triazin-4-amine] | > 0.4 µM | > 1 µM | –
C[C@@H](Nc1ncnc2c1cc(C1CCNCC1)n2C)c1cc(N)cc(C(F)(F)F)c1 [Example 38, N-[(1R)-1-[3-amino-5-(trifluoromethyl)phenyl]ethyl]-7-methyl-6-(4-piperidyl)pyrrolo[2,3-d]pyrimidin-4-amine] | – | – | > 1 µM
CC(=O)N1CCN(c2cc3c(N[C@H](C)c4cc(N)cc(C(F)(F)F)c4)ncnn3c2)CC1 [Example 43, 1-[4-[4-[[(1R)-1-[3-amino-5-(trifluoromethyl)phenyl]ethyl]amino]pyrrolo[2,1-f][1,2,4]triazin-6-yl]piperazin-1-yl]ethanone] | > 0.4 µM | > 1 µM | –
COc1cc2c(N[C@H](C)c3cc(N)cc(C(F)(F)F)c3)ncnn2c1 [Example 44, N-[(1R)-1-[3-amino-5-(trifluoromethyl)phenyl]ethyl]-6-methoxy-pyrrolo[2,1-f][1,2,4]triazin-4-amine] | > 0.4 µM | > 1 µM | –
CC(=O)N1CCN(c2cc3c(N[C@H](C)c4cccc(C(F)(F)F)c4)ncnn3c2)CC1 [Example 45, 1-[4-[4-[[(1R)-1-[3-(trifluoromethyl)phenyl]ethyl]amino]pyrrolo[2,1-f][1,2,4]triazin-6-yl]piperazin-1-yl]ethenone] | ≤ 0.4 µM | > 1 µM | –
Cc1nc(N[C@H](C)c2cc(N)cc(C(F)(F)F)c2)c2cc(C3=CCNCC3)sc2n1 [Example 46, N-[(1R)-1-[3-amino-5-(trifluoromethyl)phenyl]ethyl]-2-methyl-6-(1,2,3,6-tetrahydropyridin-4-yl)thieno[2,3-d]pyrimidin-4-amine] | – | > 1 µM | –
C[C@@H](Nc1ccnc2cc(C3=CCNCC3)nn12)c1cc(N)cc(C(F)(F)F)c1 [Example 52, N-[(1R)-1-[3-amino-5-(trifluoromethyl)phenyl]ethyl]-2-(1,2,3,6-tetrahydropyridin-4-yl)pyrazolo[1,5-a]pyrimidin-7-amine] | ≤ 0.4 µM | > 1 µM | –
C[C@@H](Nc1cc(C(F)(F)F)cn2nc(C3=CCNCC3)nc12)c1cc(N)cc(C(F)(F)F)c1 [Example 54, N-[(1R)-1-[3-amino-5-(trifluoromethyl)phenyl]ethyl]-2-(1,2,3,6-tetrahydropyridin-4-yl)-6-(trifluoromethyl)-[1,2,4]triazolo[1,5-a]pyridin-8-amine] | – | > 1 µM | –
C[C@@H](Nc1cccc2nc(C3=CCNCC3)nn12)c1cc(N)cc(C(F)(F)F)c1 [Example 55, N-[(1R)-1-[3-amino-5-(trifluoromethyl)phenyl]ethyl]-2-(1,2,3,6-tetrahydropyridin-4-yl)-[1,2,4]triazolo[1,5-a]pyridin-5-amine] | – | > 1 µM | –
Cc1cn2nc(C(=O)N3CCOCC3)cc2c(N[C@H](C)c2cc(N)cc(C(F)(F)F)c2)n1 [Example 58., 60.] | > 0.4 µM | > 1 µM | –
Cc1cn2nc(C(=O)N3CCN(C)CC3)cc2c(N[C@H](C)c2cc(N)cc(C(F)(F)F)c2)n1 [Example 59] | ≤ 0.4 µM | > 1 µM | –
Cc1nc(N[C@H](C)c2cc(N)cc(C(F)(F)F)c2)c2cc(-c3ccnc(N4CCOCC4)c3)cn2n1 [Example 63, N-[(1R)-1-[3-amino-5-(trifluoromethyl)phenyl]ethyl]-2-methyl-6-[2-(morpholin-4-yl)pyridin-4-yl]pyrrolo[2,1-f][1,2,4]triazin-4-amine] | ≤ 0.4 µM | > 1 µM | –
COc1ncccc1-c1cc2c(N[C@H](C)c3cc(N)cc(C(F)(F)F)c3)nc(C)nn2c1 [Example 64, N-[(1R)-1-[3-amino-5-(trifluoromethyl)phenyl]ethyl]-6-(2-methoxypyridin-3-yl)-2-methylpyrrolo[2,1-f][1,2,4]triazin-4-amine] | > 0.4 µM | > 1 µM | –
C[C@@H](Nc1ncnc2c1cc(C1=CCNCC1)n2C)c1cc(N)cc(C(F)(F)F)c1 [Example 67] | ≤ 0.4 µM | – | –
Cc1cn2nc(C(=O)N3CCNCC(F)(F)C3)cc2c(N[C@H](C)c2cc(N)cc(C(F)(F)F)c2)n1 [Example 77] | – | > 1 µM | –
Cc1cn2nc(C(=O)N3CC(N4CCC4)C3)cc2c(N[C@H](C)c2cc(N)cc(C(F)(F)F)c2)n1 [Example 79] | – | > 1 µM | –
Cc1cn2nc(C(=O)N3CC4CC(C3)N4C)cc2c(N[C@H](C)c2cc(N)cc(C(F)(F)F)c2)n1 [Example 80] | – | > 1 µM | –
C[C@@H](Nc1nc(Cl)cc2nc(C(=O)N3CCOCC3)cn12)c1cccc(C(F)(F)CO)c1 [Example 86] | ≤ 0.4 µM | < 1 µM | –
C[C@@H](Nc1nccc2nc(C(=O)N3CC4(CN(CCF)C4)C3)cn12)c1cccc(C(F)F)c1F [Example 92] | ≤ 0.4 µM | < 1 µM | –
C[C@@H](Nc1nccc2nc(C(=O)N3CC4(CN(CC(F)F)C4)C3)cn12)c1cccc(C(F)F)c1F [Example 93] | ≤ 0.4 µM | < 1 µM | –
